# Test results: publication PMC7914897, “Cytotoxic Potential of a-Azepano- and 3-Amino-3,4-SeCo-Triterpenoids” (International Journal of Molecular Sciences, 2021)
# Like-named read-outs stand apart in the source and are kept apart here.
# Legend:
# [1] = system: A2780 (ovarian carcinoma); experiment: SRB cytotoxicity assay, 72 h; assay type: cell-based, human; conditions: A2780, 72 h, cut-off 30 µM
# Outline: (§1)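 Cells seeded, treated 24 h later with serial dilutions (0–30 µM; DMSO ≤0.5%) for 72 h. TCA-fixed, SRB-stained, absorbance read at 570 nm; survival relative to untreated controls gives EC50.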
# [2] = system: A375 (malignant melanoma); experiment: SRB cytotoxicity assay, 72 h; assay type: cell-based, human; conditions: A375, 72 h, cut-off 30 µM
# Outline: as §1
# [3] = system: FaDu (hypopharyngeal carcinoma); experiment: SRB cytotoxicity assay, 72 h; assay type: cell-based, human; conditions: cut-off 30 µM
# Outline: as §1
# [4] = system: HT29 (colorectal carcinoma); experiment: SRB cytotoxicity assay, 72 h; assay type: cell-based, human; conditions: HT29, 72 h, cut-off 30 µM
# Outline: as §1
# MCF-7 (breast carcinoma) = experiment: SRB cytotoxicity assay, 72 h; assay type: cell-based, human; conditions: MCF-7, 72 h, cut-off 30 µM
# Outline: as §1
# [5] = system: NIH 3T3 (non-malignant mouse fibroblasts); experiment: SRB cytotoxicity assay, 72 h; assay type: cell-based; conditions: NIH 3T3, 72 h, cut-off 30 µM
# Outline: as §1
# Leukemia subpanel = experiment: cells; conditions: Homo sapiens; for IC (TGI): 48 h, read-out: TGI MG_MID; for GI50: read-out: GI50 MG_MID; for CC50: read-out: LC50 MG_MID
# [6] = system: MDA-MB-468 (Breast cancer); experiment: cells; conditions: Homo sapiens; for GI50: MDA-MB-468; for IC (TGI): MDA-MB-468, 48 h, read-out: TGI; for CC50: MDA-MB-468, read-out: LC50
# Colon Cancer subpanel = experiment: NCI-60 screen, subpanel; conditions: Homo sapiens; for IC (TGI): 48 h, read-out: TGI MG_MID; for GI50: read-out: GI50 MG_MID; for CC50: read-out: LC50 MG_MID
# CCRF-CEM (Leukemia) = experiment: NCI-60 screen (SRB, 48 h); conditions: Homo sapiens; for IC (TGI): 48 h, read-out: TGI; for CC50: read-out: LC50
# MOLT-4 (Leukemia) = experiment: NCI-60 screen (SRB, 48 h); conditions: Homo sapiens; for GI50: MOLT-4; for IC (TGI): MOLT-4, 48 h, read-out: TGI; for CC50: MOLT-4, read-out: LC50
# [7] = system: A549/ATCC (NSC lung cancer); experiment: NCI-60 screen (SRB, 48 h); conditions: Homo sapiens; for GI50: A549; for IC (TGI): A549, 48 h, read-out: TGI; for CC50: A549, read-out: LC50
# HOP-92 (NSC lung cancer) = experiment: NCI-60 screen (SRB, 48 h); conditions: Homo sapiens; for GI50: HOP-92; for IC (TGI): HOP-92, 48 h, read-out: TGI
# [8] = system: NCI-H23 (NSC lung cancer); experiment: NCI-60 screen (SRB, 48 h); conditions: Homo sapiens; for GI50: NCI-H23; for IC (TGI): NCI-H23, 48 h, read-out: TGI; for CC50: NCI-H23, read-out: LC50
# HCT-116 (Colon cancer) = experiment: NCI-60 screen (SRB, 48 h); conditions: Homo sapiens; for GI50: HCT-116; for activity at 10 µM / IC (TGI): HCT-116, 48 h; for activity at 10 µM: read-out: Growth % of the Most Sensitive Cell Lines; for IC (TGI): read-out: TGI; for CC50: HCT-116, read-out: LC50
# HCT-15 (Colon cancer) = experiment: NCI-60 screen (SRB, 48 h); conditions: Homo sapiens; for GI50: HCT-15; for IC (TGI): HCT-15, 48 h, read-out: TGI; for CC50: HCT-15, read-out: LC50
# SF-295 (CNS cancer) = experiment: NCI-60 screen (SRB, 48 h); conditions: Homo sapiens; for GI50: SF-295; for IC (TGI): SF-295, 48 h, read-out: TGI; for CC50: SF-295, read-out: LC50
# SNB-19 (CNS cancer) = experiment: NCI-60 screen (SRB, 48 h); conditions: Homo sapiens; for GI50: SNB-19; for IC (TGI): SNB-19, 48 h, read-out: TGI; for CC50: SNB-19, read-out: LC50
# U251 (CNS cancer) = experiment: NCI-60 screen (SRB, 48 h); conditions: Homo sapiens; for GI50: U-251; for IC (TGI): U-251, 48 h, read-out: TGI; for CC50: U-251, read-out: LC50
# IGROV1 (Ovarian cancer) = experiment: NCI-60 screen (SRB, 48 h); conditions: Homo sapiens; for GI50: IGROV-1; for IC (TGI): IGROV-1, 48 h, read-out: TGI; for CC50: IGROV-1, read-out: LC50
# OVCAR-5 (Ovarian cancer) = experiment: NCI-60 screen (SRB, 48 h); conditions: Homo sapiens; for GI50: OVCAR-5; for IC (TGI): OVCAR-5, 48 h, read-out: TGI; for CC50: OVCAR-5, read-out: LC50
# CAKI-1 (Renal cancer) = experiment: NCI-60 screen (SRB, 48 h); conditions: for GI50 / IC (TGI) / CC50: Homo sapiens; for GI50: CAKI-1; for IC (TGI): CAKI-1, 48 h, read-out: TGI; for CC50: CAKI-1, read-out: LC50
# SN12C (Renal cancer) = experiment: NCI-60 screen (SRB, 48 h); conditions: Homo sapiens; for IC (TGI): 48 h, read-out: TGI; for CC50: read-out: LC50
# TK-10 (Renal cancer) = experiment: NCI-60 screen (SRB, 48 h); conditions: Homo sapiens; for GI50: TK-10; for IC (TGI): TK-10, 48 h, read-out: TGI; for CC50: TK-10, read-out: LC50
# [9] = system: MDA-MB-31/ATCC (Breast cancer); experiment: NCI-60 screen (SRB, 48 h); conditions: Homo sapiens; for IC (TGI): 48 h, read-out: TGI; for CC50: read-out: LC50
compound,measurement,setting,value
"C=C(C)C1CCC2(CO)CCC3(C)C(CCC4C5(C)CCCNC(C)(C)C5CCC43C)C12 (centres unmarked) [Compound 1, Azepanobetulin]",EC50,"[1]; Homo sapiens, read-out: EC50",2.39 ± 0.2 µM
same,EC50,"[2]; Homo sapiens, A-375, 72 h, read-out: EC50",2.52 ± 0.2 µM
same,EC50,"[3]; Homo sapiens, read-out: EC50",2.32 ± 0.3 µM
same,EC50,"[4]; Homo sapiens, HT-29, read-out: EC50",1.63 ± 0.3 µM
same,EC50,"MCF-7 (breast carcinoma); Homo sapiens, MCF7, read-out: EC50",1.91 ± 0.1 µM
same,EC50,"[5]; Mus musculus, NIH3T3, read-out: EC50",1.6 ± 0.4 µM
same,IC (TGI),Leukemia subpanel,4.3 µM
same,GI50,Leukemia subpanel,1.69 µM
same,CC50,Leukemia subpanel,> 100 µM
same,GI50,[6],1.66 µM
same,IC (TGI),[6],3.38 µM
same,CC50,[6],6.88 µM
same,IC (TGI),Colon Cancer subpanel,3.01 µM
same,GI50,Colon Cancer subpanel,1.51 µM
same,CC50,Colon Cancer subpanel,5.98 µM
same,GI50,CCRF-CEM (Leukemia),2.07 µM
same,IC (TGI),CCRF-CEM (Leukemia),4.91 µM
same,CC50,CCRF-CEM (Leukemia),> 100 µM
same,GI50,MOLT-4 (Leukemia),1.79 µM
same,IC (TGI),MOLT-4 (Leukemia),4.5 µM
same,CC50,MOLT-4 (Leukemia),> 100 µM
same,GI50,[7],1.73 µM
same,IC (TGI),[7],3.24 µM
same,CC50,[7],6.08 µM
same,GI50,HOP-92 (NSC lung cancer),1.73 µM
same,IC (TGI),HOP-92 (NSC lung cancer),3.33 µM
same,CC50,"HOP-92 (NSC lung cancer); HOP-92, read-out: LC50",6.42 µM
same,GI50,[8],1.71 µM
same,IC (TGI),[8],3.39 µM
same,CC50,[8],6.68 µM
same,GI50,HCT-116 (Colon cancer),1.29 µM
same,activity at 10 µM,HCT-116 (Colon cancer),-79%
same,IC (TGI),HCT-116 (Colon cancer),2.63 µM
same,CC50,HCT-116 (Colon cancer),5.38 µM
same,GI50,HCT-15 (Colon cancer),1.39 µM
same,IC (TGI),HCT-15 (Colon cancer),2.77 µM
same,CC50,HCT-15 (Colon cancer),5.52 µM
same,GI50,SF-295 (CNS cancer),1.66 µM
same,IC (TGI),SF-295 (CNS cancer),3.13 µM
same,CC50,SF-295 (CNS cancer),5.9 µM
same,GI50,SNB-19 (CNS cancer),1.75 µM
same,IC (TGI),SNB-19 (CNS cancer),3.2 µM
same,CC50,SNB-19 (CNS cancer),5.86 µM
same,GI50,U251 (CNS cancer),1.65 µM
same,IC (TGI),U251 (CNS cancer),3.09 µM
same,CC50,U251 (CNS cancer),5.76 µM
same,GI50,IGROV1 (Ovarian cancer),1.65 µM
same,IC (TGI),IGROV1 (Ovarian cancer),3.26 µM
same,CC50,IGROV1 (Ovarian cancer),6.44 µM
same,GI50,OVCAR-5 (Ovarian cancer),1.51 µM
same,IC (TGI),OVCAR-5 (Ovarian cancer),2.89 µM
same,CC50,OVCAR-5 (Ovarian cancer),5.52 µM
same,GI50,CAKI-1 (Renal cancer),1.55 µM
same,IC (TGI),CAKI-1 (Renal cancer),2.89 µM
same,CC50,CAKI-1 (Renal cancer),5.4 µM
same,GI50,SN12C (Renal cancer),1.62 µM
same,IC (TGI),SN12C (Renal cancer),3.03 µM
same,CC50,SN12C (Renal cancer),5.69 µM
same,GI50,TK-10 (Renal cancer),1.76 µM
same,IC (TGI),TK-10 (Renal cancer),3.5 µM
same,CC50,TK-10 (Renal cancer),6.96 µM
same,GI50,[9],1.77 µM
same,IC (TGI),[9],3.21 µM
same,CC50,[9],5.8 µM
"CC1(C)CC[C@]23CC[C@]4(C)[C@H](CC[C@@H]5[C@@]6(C)CCCNC(C)(C)[C@@H]6CC[C@]54C)[C@H]2[C@H]1OC3 [Compound 7, Azepanoallobetulin]",EC50,[1],n.s.
same,EC50,[2],n.s.
same,EC50,[3],n.s.
same,EC50,[4],n.s.
same,EC50,MCF-7 (breast carcinoma),n.s.
same,EC50,[5],n.s.
same,IC (TGI),Leukemia subpanel,5.49 µM
same,GI50,Leukemia subpanel,1.96 µM
same,CC50,Leukemia subpanel,94.3 µM
same,GI50,[6],1.61 µM
same,IC (TGI),[6],3.45 µM
same,CC50,[6],7.39 µM
same,IC (TGI),Colon Cancer subpanel,3.11 µM
same,GI50,Colon Cancer subpanel,1.58 µM
same,CC50,Colon Cancer subpanel,6.11 µM
same,GI50,CCRF-CEM (Leukemia),2.32 µM
same,IC (TGI),CCRF-CEM (Leukemia),6.73 µM
same,CC50,CCRF-CEM (Leukemia),> 100 µM
same,GI50,MOLT-4 (Leukemia),2.1 µM
same,IC (TGI),MOLT-4 (Leukemia),5.04 µM
same,CC50,MOLT-4 (Leukemia),74.8 µM
same,GI50,[7],1.81 µM
same,IC (TGI),[7],3.43 µM
same,CC50,[7],6.5 µM
same,GI50,HOP-92 (NSC lung cancer),1.41 µM
same,IC (TGI),HOP-92 (NSC lung cancer),2.96 µM
same,GI50,[8],1.76 µM
same,IC (TGI),[8],3.5 µM
same,CC50,[8],6.95 µM
same,GI50,HCT-116 (Colon cancer),1.52 µM
same,activity at 10 µM,HCT-116 (Colon cancer),-99.4%
same,IC (TGI),HCT-116 (Colon cancer),2.88 µM
same,CC50,HCT-116 (Colon cancer),5.47 µM
same,GI50,HCT-15 (Colon cancer),1.31 µM
same,IC (TGI),HCT-15 (Colon cancer),2.68 µM
same,CC50,HCT-15 (Colon cancer),5.47 µM
same,GI50,SF-295 (CNS cancer),1.7 µM
same,IC (TGI),SF-295 (CNS cancer),3.19 µM
same,CC50,SF-295 (CNS cancer),5.99 µM
same,GI50,SNB-19 (CNS cancer),1.85 µM
same,IC (TGI),SNB-19 (CNS cancer),3.35 µM
same,CC50,SNB-19 (CNS cancer),6.07 µM
same,GI50,U251 (CNS cancer),1.74 µM
same,IC (TGI),U251 (CNS cancer),3.23 µM
same,CC50,U251 (CNS cancer),5.98 µM
same,GI50,IGROV1 (Ovarian cancer),1.79 µM
same,IC (TGI),IGROV1 (Ovarian cancer),3.48 µM
same,CC50,IGROV1 (Ovarian cancer),6.78 µM
same,GI50,OVCAR-5 (Ovarian cancer),1.6 µM
same,IC (TGI),OVCAR-5 (Ovarian cancer),3.04 µM
same,CC50,OVCAR-5 (Ovarian cancer),5.8 µM
same,Growth % of the Most Sensitive Cell Lines,"CAKI-1 (Renal cancer); CAKI-1, 1 dose 10 µM",−92.03%
same,GI50,CAKI-1 (Renal cancer),1.62 µM
same,IC (TGI),CAKI-1 (Renal cancer),2.97 µM
same,CC50,CAKI-1 (Renal cancer),5.45 µM
same,GI50,SN12C (Renal cancer),1.68 µM
same,IC (TGI),SN12C (Renal cancer),3.2 µM
same,CC50,SN12C (Renal cancer),6.1 µM
same,GI50,TK-10 (Renal cancer),1.89 µM
same,IC (TGI),TK-10 (Renal cancer),3.61 µM
same,CC50,TK-10 (Renal cancer),6.91 µM
same,GI50,[9],1.66 µM
same,IC (TGI),[9],3.2 µM
same,CC50,[9],6.17 µM
